This note sets out measurements from article PMC9772100 (ACS chemical biology, 2022).

For one data set, the target named is T1, PfHGXPRT (Plasmodium falciparum, UniProt P20035).
T1 sequence (P20035 1-231): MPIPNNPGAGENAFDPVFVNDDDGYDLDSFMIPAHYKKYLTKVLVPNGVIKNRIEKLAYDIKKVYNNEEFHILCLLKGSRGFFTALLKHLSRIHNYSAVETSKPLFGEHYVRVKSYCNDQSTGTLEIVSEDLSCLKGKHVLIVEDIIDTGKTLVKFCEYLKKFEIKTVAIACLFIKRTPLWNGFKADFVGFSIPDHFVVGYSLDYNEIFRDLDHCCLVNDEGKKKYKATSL
The data set can be described thus: PfHGXPRT steady-state kinetics. The class given is biochemical.

Substrate in data set [1]: O=c1[nH]cnc2nc[nH]c12
The experiment in a line: purified protein, by the assay type. The settings on record: other: unactivated enzyme; pH 7.4.

Where two headings read alike, the source gives them in different places.

The Km is the substrate concentration at which the rate is half of its maximum. On to `O=P(O)(O)OC[C@H]1O[C@H](OP(=O)(O)OP(=O)(O)O)[C@H](O)[C@@H]1O` [PRPP, 5-phospho-α-D-ribosyl 1-pyrophosphate], for which the Km was found to be 185 ± 14 µM at PfHGXPRT (read-out: Km, activated PfHGXPRT, substrate-activated enzyme) and 55 ± 11 µM on PfHGXPRT (read-out: Km, unactivated PfHGXPRT, unactivated enzyme).

B1: PfHGXPRT (Plasmodium falciparum FCR-3/Gambia) (protein)
chain: T1 sequence (P20035 1-231)
With B1, in data set [1], the Km came out at 2.7 ± 0.3 µM.
